Where two headings read alike, the source gives them in different places.
Tests used:
[1] = Test 5: sensory evaluation, selection of glucose sample of equivalent sweetness; format: in vivo; conditions: 15% glucose sample containing 60 ppm ERG
Method: Glucose was added to pure water to prepare glucose samples having six concentrations of 0%, 13%, 14%, 15%, 16%, and 17%; and as a seventh sample, a sample in which ergothioneine was added to 15% glucose to a final concentration of 60 ppm was prepared.
Sweetness was sensorially evaluated by the same expert panel of five trained sweetness-sensitive subjects as in Test 1. The panel of five experts was asked to select a sample having an equivalent sweetness from among the 1st to 6th glucose samples (the concentration was not disclosed to the panel) regarding the sweetness of the 7th 15% glucose sample containing 60 ppm ERG.

[2] = format: in vivo; conditions: 50% trehalose samples
Method: (§1) Evaluation results of sweetness of test product compared with control • ∘: Sweetness was enhanced compared to the control. • ◇: Sweetness was similar to that of the control.
In the following Test 9, sensory evaluation was performed by a panel of three experts in the same paired comparison test as in Tests 3, 5, and 7.
Samples were prepared by adding ergothioneine to a 50% trehalose sample to final concentrations of 0.5 ppm, 1 ppm, 3 ppm, 5 ppm, 10 ppm, and 20 ppm (Table 11, ERG0 to 20).
For the 50% trehalose samples to which ERG was added at each concentration (the concentration was not disclosed to the panel), pairs combining a control 50% trehalose sample and a 50% trehalose sample containing ergothioneine at each concentration were presented to the expert panel, and the panel evaluated which sample of the presented pair was perceived to be sweeter by a paired comparison test.

[3] = format: in vivo; conditions: ERG added to water to a final concentration of 60 ppm; all the five panelists
Method: In the same manner as in Test 1, sucrose samples having six concentrations of 0%, 1%, 1.5%, 2%, 2.5%, and 3%, and as a seventh sample, a sample in which ergothioneine was added to water to a final concentration of 60 ppm were prepared. A drinking test by the same expert panel of five as in Test 1 was conducted, and after tasting each sample and before tasting the next sample, the mouth was completely rinsed with water at room temperature, and sweetness was sensorially evaluated. The panel of five experts was asked to select a sample having an equivalent sweetness from among the 1st to 6th sucrose samples (the concentration was not disclosed to the panel) regarding the sweetness of the 7th sample.

[4] = Test 9 (3): paired comparison test of sweetness, 50% starch syrup sample; format: in vivo; conditions: 50% starch syrup samples
Method: Samples were prepared by adding ERG to a 50% starch syrup sample of a highly saccharified reduced starch syrup rich in monosaccharide alcohols and disaccharide alcohols (SE 600, Bussan Food Science Co., Ltd.) to the ERG concentrations shown in Table 14 (ERG0 to 10). Pairs combining a control 50% starch syrup sample and a 50% starch syrup sample containing ERG at each concentration were presented, and the panel evaluated which sample of the presented pair was perceived to be sweeter by a paired comparison test.

[5] = format: in vivo; conditions: amazake
Method: as §1
1,250 g of white rice was soaked in water overnight, transferred to a colander, and drained for 2 hours. Thereafter, the rice was wrapped in a Tetoron cloth and steamed at 100°C for 40 minutes. The steamed rice was cooled to 45°C, and a seed koji was inoculated. The rice was wrapped in a Pylen cloth, and koji-making was started under the conditions of 35°C and 95% humidity. 19 hours after the start of koji-making, the rice koji was loosened and wrapped again in the Pylen cloth. When the product temperature reached 40°C, the Pylen cloth was spread and the rice koji was leveled. After another 40 hours, the rice koji was well loosened and left to stand again. After 42 hours, the koji was taken out. […]
The sweetness of the amazake was sensorially evaluated by an expert panel consisting of five trained sweetness-sensitive subjects.
Pairs combining amazake containing ERG at different concentrations shown in Table 19 (ERG12 to 345) were presented to the expert panel of five, and the panelists evaluated which sample of the presented pair was perceived to be sweeter by a paired comparison test.

[6] = Test 9 (6): paired comparison test of sweetness, 0.1% stevia sample; format: in vivo; conditions: 0.1% stevia samples
From the text: Pairs combining a control 0.1% stevia sample and a 0.1% stevia sample containing ERG at each concentration were presented, and the panel evaluated which sample of the presented pair was perceived to be sweeter by a paired comparison test.

[7] = format: in vivo; conditions: 50% glucose solution
Method: as §1
Samples ERG0 to 900 were prepared by adding ergothioneine to 50% glucose samples to final concentrations of 0.5 ppm, 1 ppm, 3 ppm, 5 ppm, 10 ppm, 20 ppm, 60 ppm, 100 ppm, 400 ppm, and 900 ppm (Table 4).
Pairs combining a control 50% glucose sample to which ergothioneine was not added and a 50% glucose sample containing ergothioneine at each concentration were presented to the expert panel of four, and the panel evaluated which sample of the presented pair was perceived to be sweeter by a paired comparison test.

[8] = format: in vivo; conditions: milk
Method: as §1
Samples of milk (EGR0.5 to 20) were prepared by adding ergothioneine to commercially available milk to final concentrations of 0.5 ppm, 1 ppm, 3 ppm, 5 ppm, 10 ppm, and 20 ppm.
(§2) A drinking test by a panel of three experts was conducted on the milk to which ERG was added at each concentration (the concentration was not disclosed to the panel), using a milk to which no ergothioneine was added (ERG0) as a control, and the sweetness was sensorially evaluated by a paired comparison test.

[9] = format: in vivo
Method: Evaluation results of sweetness of test product compared with control • ∘: Sweetness was enhanced compared to the control. • ◇: Sweetness was similar to that of the control. […]
as §2, with “on the prepared soy milk to” for “on the milk to”, “using a prepared soy milk to” for “using a milk to”

In the case of `C[N+](C)(C)[C@@H](Cc1c[nH]c(=S)[nH]1)C(=O)[O-]` [ERG, Ergothioneine], the “glucose solution of equivalent sweetness” value ([1]; three of the five panelists) was 16%, the “glucose solution of equivalent sweetness” value ([1]; two of the five panelists) was 17% and the “ERG added at which all the panelists evaluated that the sweetness was enhanced” value (“ERG added” for short) [2] was ≥ 0.5 ppm. The “ERG having a sweetness-enhancing effect, based on the trehalose content” value [2] was ≥ 0.0001 % by weight, the “sucrose solution of equivalent sweetness” value [3] was 0% and the “ERG added” value [4] was ≥ 0.5 ppm. For the same compound, the “ERG content at which all the panelists evaluated that the sweetness was enhanced” value [5] was ≥ 30 ppm, the “ERG content above which the degree of sweetness enhancement did not change” value ([5]; 345 ppm judged equivalent by a majority of the panelists) was 145 ppm and the “ERG added” value [6] was ≥ 0.5 ppm. The “ERG having a sweetness-enhancing effect, based on the stevia content” value [6] was ≥ 0.05 % by weight, the “ERG added” value [7] was ≥ 0.5 ppm and the “ERG having a sweetness-enhancing effect, based on the glucose content” value [7] was ≥ 0.0001 % by weight. The “ERG content at which all the panelists evaluated that the sweetness was enhanced” value [8] was 5 ppm, the “ERG content at which all the panelists evaluated the enhancement of sweetness” value ([9]; prepared soy milk) was 5 ppm and the “ERG content at which two panelists evaluated that the sweetness was enhanced” value ([9]; prepared soy milk) was 3 ppm. The creamy feel ([9]; prepared soy milk containing 40 ppm of ERG) was “increased”.

From patent publication EP4817428A1, “SWEETNESS ENHANCER CONTAINING ERGOTHIONEINE AS ACTIVE INGREDIENT, AND FOOD OR BEVERAGE PRODUCT CONTAINING SAME” (Kikkoman Corporation, priority 2023, dated 2025)
